# Key:
# [1] = biological target: ALK4 (Homo sapiens (Human), UniProt P36896); assay: Cell-free assay for inhibition of ALK4 kinase phosphorylation; assay type: biochemical
# Description: ALK5 protein was expressed in Sf9 insect cells as human recombinant GST-fusion protein using the baculovirus expression system. Expressed protein was purified by affinity chromatography using GSH-agarose (Sigma-Aldrich). Kinase assay was performed in 96-well FlashPlates™ from Perkin Elmer (Boston, Mass., USA) in a 50 μL reaction volume. The reaction cocktail was pipetted in four steps in the following order: 20 μL of assay buffer (standard buffer), 5 μL of ATP solution in H2O, 5 μL of each test compounds of formula (I) in 10% DMSO, 10 μL of GSK3 (14-27) (200 ng)/10 μL of ALK5 solution (1 ng) (premixed). The reaction cocktail contained 60 mM HEPES-NaOH, pH 7.5, 3 mM MgCl2, 3 mM MnCl2, […], 1.2 mM DTT, 50 μg/mL PEG20000, 1 μM [γ-^33P]-ATP (approximately 2.5×10^5 cpm per well), 200 ng/10 μL GSK3 (14-27), and 1 ng/10 μL ALK5. The reaction cocktail was incubated at 30° C. for 60 min. […] Incorporation of ^33Pi (counting of “cpm”) was determined with a microplate scintillation counter (Microbeta, Wallac).
# Inhibition of the ALK4 kinase phosphorylation by test compounds of formula (I) can be determined in a similar manner to that described above for ALK5 inhibition except that GST-tagged ALK4 (Invitrogen Corporation) and RBER-CHKtide are used in place of the GST-tagged ALK5 and GSK3 (14-27).
# [2] = tested on: 4T1 cells; assay: Matrigel invasion assay; assay type: cell-based; settings: TGF-β1 2 ng/mL, 20 h
# Description: The upper surface of Transwells (6.5 mm diameter, 8 μm pore size; […] After incubation for 20 h at 37° C. in 5% CO2, the cells remaining on the upper surface of the membrane were removed with a cotton swab, and DAPI-stained cells remaining on the bottom surface were observed using fluorescence microscopy. Average cell number per view field was obtained from 5 random fields.
# [3] = tested on: bile duct-ligated (BDL) rats; assay: Anti-fibrotic effect on bile duct-ligated liver fibrosis model; assay type: in vivo; settings: for Body weight / Organ weight Liver / Organ weight Liver/Body / Organ weight Spleen / Organ weight Spleen/Body: BDL rats, mean ± S.E.
# [4] = biological target: MEK1 wt (Homo sapiens (Human), UniProt Q02750); assay: Kinase selectivity profiling; assay type: biochemical
# Description: (§1) Kinase assays were performed in 96-well FlashPlates™ from Perkin Elmer in a […]. […] The reaction cocktail contained 70 mM HEPES-NaOH, pH 7.5, 3 mM MnCl2, 3 μM Na3VO4, 1.2 mM DTT, 1 μM [γ-^33P]-ATP (approximately 6×10^5 cpm per well), protein kinase (variable amounts), and substrate (variable amounts). The reaction cocktails were incubated at 30° C. for 60 min. The reaction was stopped with 50 μL of 2% (v/v) H3PO4, and plates were aspirated and washed two times with 200 μL 0.9% (w/v) NaCl. ALL assays were performed with a BeckmanCoulter Biomek 2000/SL robotic system. Incorporation of ^33Pi (counting of “cpm”) was determined with a microplate scintillation counter.
# [5] = biological target: RPS6KA1 (Homo sapiens (Human), UniProt Q15418); assay: Kinase selectivity profiling; assay type: biochemical
# Description: as §1
# [6] = biological target: VEGF-R3 (Homo sapiens (Human), UniProt P35916); assay: Kinase selectivity profiling; assay type: biochemical
# Description: as §1
# [7] = biological target: ALK3 (Homo sapiens (Human), UniProt P36894); assay: Kinase selectivity profiling; assay type: biochemical
# Description: as §1
# [8] = biological target: STK23 (Homo sapiens (Human), UniProt Q9UPE1); assay: Kinase selectivity profiling; assay type: biochemical
# Description: as §1
# [9] = biological target: AKT1 (Homo sapiens (Human), UniProt P31749); assay: Kinase selectivity profiling; assay type: biochemical
# Sequence of AKT1 (P31749 whole entry, species assumed): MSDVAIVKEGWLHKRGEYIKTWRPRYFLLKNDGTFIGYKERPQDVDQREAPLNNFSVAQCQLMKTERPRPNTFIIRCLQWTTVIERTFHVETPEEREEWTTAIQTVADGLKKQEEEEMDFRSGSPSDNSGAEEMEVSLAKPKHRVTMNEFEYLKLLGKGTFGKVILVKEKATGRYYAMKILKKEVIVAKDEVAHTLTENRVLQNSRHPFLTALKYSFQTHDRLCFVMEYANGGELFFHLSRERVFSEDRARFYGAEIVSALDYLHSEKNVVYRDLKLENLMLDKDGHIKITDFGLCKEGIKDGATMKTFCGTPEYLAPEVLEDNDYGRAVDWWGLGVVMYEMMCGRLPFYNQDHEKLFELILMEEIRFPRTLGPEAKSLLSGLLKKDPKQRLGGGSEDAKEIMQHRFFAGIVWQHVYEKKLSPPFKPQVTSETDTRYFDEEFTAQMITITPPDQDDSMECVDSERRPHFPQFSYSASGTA
# Description: as §1
# [10] = biological target: MST1 (Homo sapiens (Human), UniProt Q13043); assay: Kinase selectivity profiling; assay type: biochemical
# Description: as §1
# [11] = biological target: EGF-R wt (Homo sapiens (Human), UniProt P00533); assay: Kinase selectivity profiling; assay type: biochemical
# Sequence of EGF-R wt (P00533 25-1210): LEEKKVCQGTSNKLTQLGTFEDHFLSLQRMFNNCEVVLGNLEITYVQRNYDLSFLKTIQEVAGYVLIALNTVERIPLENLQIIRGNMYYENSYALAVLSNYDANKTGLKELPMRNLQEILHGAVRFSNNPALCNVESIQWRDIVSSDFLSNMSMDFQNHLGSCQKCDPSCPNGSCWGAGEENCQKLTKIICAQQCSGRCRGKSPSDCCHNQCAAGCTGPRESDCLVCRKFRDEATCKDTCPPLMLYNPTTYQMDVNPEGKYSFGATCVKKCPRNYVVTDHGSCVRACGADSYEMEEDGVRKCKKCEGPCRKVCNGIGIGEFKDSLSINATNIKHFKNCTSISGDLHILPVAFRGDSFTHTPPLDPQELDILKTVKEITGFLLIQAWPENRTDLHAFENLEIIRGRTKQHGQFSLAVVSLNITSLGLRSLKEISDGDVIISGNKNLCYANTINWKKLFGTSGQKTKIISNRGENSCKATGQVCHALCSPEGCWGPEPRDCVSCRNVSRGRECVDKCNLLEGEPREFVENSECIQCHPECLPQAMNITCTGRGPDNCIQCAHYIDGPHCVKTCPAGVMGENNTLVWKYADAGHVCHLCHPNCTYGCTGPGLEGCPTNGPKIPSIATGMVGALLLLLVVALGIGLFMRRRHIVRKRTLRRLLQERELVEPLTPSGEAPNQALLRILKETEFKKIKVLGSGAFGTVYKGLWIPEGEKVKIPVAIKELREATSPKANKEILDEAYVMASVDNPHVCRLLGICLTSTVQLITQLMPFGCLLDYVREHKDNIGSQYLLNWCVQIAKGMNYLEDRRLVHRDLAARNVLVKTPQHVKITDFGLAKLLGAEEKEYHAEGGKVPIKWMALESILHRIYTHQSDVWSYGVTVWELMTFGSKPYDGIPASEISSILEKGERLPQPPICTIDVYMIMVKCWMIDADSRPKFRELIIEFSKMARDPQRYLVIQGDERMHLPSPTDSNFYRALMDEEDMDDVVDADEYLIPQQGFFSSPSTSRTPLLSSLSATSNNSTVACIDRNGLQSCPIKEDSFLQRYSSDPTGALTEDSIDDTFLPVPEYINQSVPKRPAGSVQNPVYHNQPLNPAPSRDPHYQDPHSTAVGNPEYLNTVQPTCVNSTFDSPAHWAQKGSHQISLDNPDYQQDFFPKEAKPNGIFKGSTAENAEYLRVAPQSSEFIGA
# Description: as §1
# [12] = biological target: CHK1 (Homo sapiens (Human), UniProt O14757); assay: Kinase selectivity profiling; assay type: biochemical
# Sequence of CHK1 (O14757 whole entry, species assumed): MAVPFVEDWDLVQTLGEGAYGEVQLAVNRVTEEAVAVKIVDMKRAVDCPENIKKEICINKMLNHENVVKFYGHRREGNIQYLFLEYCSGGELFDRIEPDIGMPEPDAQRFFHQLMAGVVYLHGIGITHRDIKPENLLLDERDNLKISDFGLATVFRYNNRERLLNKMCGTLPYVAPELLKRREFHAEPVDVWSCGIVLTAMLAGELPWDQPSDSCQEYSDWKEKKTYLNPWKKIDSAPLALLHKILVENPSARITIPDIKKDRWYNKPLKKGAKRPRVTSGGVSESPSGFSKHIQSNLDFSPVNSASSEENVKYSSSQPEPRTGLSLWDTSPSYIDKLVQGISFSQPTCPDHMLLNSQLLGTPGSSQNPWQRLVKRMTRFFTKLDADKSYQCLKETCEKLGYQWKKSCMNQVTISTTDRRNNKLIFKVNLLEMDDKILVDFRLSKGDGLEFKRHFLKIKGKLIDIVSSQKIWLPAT
# Description: as §1
# [13] = biological target: PDGFRα wt (Homo sapiens (Human), UniProt P16234); assay: Kinase selectivity profiling; assay type: biochemical
# Sequence of PDGFRα wt (P16234 24-1089): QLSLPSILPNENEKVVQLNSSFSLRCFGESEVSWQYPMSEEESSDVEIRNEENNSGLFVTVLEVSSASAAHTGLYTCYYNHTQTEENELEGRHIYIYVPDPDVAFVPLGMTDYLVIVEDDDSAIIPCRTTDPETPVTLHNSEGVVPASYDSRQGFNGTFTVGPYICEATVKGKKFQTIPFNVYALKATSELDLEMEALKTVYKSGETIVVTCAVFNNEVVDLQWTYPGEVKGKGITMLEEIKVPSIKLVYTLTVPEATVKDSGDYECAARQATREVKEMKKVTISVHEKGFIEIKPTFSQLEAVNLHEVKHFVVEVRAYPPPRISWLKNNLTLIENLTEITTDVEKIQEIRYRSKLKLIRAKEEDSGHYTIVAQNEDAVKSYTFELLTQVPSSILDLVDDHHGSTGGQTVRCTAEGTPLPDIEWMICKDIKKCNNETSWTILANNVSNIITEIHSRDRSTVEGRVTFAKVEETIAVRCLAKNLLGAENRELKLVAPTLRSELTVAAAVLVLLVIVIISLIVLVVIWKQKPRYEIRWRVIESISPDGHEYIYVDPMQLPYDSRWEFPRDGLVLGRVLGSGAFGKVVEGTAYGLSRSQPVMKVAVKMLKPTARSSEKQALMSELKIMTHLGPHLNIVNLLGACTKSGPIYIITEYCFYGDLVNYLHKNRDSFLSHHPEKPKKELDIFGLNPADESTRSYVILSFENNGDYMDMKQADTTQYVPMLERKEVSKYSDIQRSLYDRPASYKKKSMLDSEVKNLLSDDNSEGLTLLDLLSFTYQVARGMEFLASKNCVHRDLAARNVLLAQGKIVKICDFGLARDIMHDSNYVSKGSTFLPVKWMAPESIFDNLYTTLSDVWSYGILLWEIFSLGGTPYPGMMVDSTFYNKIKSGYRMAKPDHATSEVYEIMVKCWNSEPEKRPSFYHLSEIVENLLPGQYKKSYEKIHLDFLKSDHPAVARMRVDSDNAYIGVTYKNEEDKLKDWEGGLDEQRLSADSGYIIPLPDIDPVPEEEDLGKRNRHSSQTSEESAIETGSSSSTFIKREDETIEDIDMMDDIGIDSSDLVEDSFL
# Description: as §1
# [14] = biological target: GSK3α (Homo sapiens (Human), UniProt P49840); assay: Kinase selectivity profiling; assay type: biochemical
# Sequence of GSK3α (P49840 whole entry, species assumed): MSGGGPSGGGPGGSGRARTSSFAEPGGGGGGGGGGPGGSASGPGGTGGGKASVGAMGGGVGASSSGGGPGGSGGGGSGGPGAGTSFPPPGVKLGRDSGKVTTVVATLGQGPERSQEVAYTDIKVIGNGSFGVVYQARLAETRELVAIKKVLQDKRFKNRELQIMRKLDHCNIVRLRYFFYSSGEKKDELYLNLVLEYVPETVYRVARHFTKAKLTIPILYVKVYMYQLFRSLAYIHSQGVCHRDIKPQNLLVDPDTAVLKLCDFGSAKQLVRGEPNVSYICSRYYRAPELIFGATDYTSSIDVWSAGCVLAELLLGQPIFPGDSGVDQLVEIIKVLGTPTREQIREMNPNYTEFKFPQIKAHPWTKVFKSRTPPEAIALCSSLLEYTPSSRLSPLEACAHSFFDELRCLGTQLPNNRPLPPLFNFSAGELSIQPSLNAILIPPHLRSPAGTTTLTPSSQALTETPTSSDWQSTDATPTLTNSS
# Description: as §1
# [15] = biological target: ALK1 (Homo sapiens (Human), UniProt P37023); assay: Kinase selectivity profiling; assay type: biochemical
# Sequence of ALK1 (P37023 22-503, species assumed): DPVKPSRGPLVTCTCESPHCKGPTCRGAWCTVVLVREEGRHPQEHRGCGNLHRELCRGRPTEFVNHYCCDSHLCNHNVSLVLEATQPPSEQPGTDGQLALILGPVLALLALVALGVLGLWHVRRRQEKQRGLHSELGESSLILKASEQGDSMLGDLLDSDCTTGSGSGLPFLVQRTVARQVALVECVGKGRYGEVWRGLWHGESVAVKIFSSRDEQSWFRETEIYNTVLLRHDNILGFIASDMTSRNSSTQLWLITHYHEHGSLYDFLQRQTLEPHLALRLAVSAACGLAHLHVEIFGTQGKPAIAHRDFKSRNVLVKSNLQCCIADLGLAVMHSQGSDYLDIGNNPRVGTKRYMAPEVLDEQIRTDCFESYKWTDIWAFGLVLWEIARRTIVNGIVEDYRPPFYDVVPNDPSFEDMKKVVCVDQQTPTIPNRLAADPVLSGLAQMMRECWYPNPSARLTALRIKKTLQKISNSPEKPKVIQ
# Description: as §1
# [16] = biological target: ALK2 (Homo sapiens (Human), UniProt Q04771); assay: Kinase selectivity profiling; assay type: biochemical
# Sequence of ALK2 (Q04771 21-509, species assumed): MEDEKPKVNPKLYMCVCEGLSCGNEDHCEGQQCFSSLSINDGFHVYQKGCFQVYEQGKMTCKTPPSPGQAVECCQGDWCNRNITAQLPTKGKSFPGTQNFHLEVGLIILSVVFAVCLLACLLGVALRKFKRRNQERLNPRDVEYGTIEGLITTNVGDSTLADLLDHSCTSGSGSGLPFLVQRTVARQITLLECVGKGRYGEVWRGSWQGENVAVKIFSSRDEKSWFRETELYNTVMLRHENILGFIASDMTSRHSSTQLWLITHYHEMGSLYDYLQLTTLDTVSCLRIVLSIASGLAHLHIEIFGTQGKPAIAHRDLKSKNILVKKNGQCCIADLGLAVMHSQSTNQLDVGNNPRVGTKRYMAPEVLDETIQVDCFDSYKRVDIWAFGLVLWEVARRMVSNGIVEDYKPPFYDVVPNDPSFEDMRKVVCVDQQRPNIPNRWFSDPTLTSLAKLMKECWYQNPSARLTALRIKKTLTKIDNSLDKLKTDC
# Description: as §1
# [17] = biological target: ERK1 (Homo sapiens (Human), UniProt P27361); assay: Kinase selectivity profiling; assay type: biochemical
# Sequence of ERK1 (P27361 whole entry, species assumed): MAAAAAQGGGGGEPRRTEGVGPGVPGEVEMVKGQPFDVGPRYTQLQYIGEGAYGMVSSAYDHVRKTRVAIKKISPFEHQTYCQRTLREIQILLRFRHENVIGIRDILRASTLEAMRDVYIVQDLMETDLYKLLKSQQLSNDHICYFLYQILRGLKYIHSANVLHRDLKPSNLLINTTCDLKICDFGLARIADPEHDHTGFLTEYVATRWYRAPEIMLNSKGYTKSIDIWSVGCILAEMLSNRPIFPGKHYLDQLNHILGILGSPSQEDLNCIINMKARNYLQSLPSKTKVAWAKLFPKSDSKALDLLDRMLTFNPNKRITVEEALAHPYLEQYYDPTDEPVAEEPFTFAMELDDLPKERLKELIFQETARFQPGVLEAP
# Description: as §1
# [18] = biological target: PDGFRβ (Homo sapiens (Human), UniProt P09619); assay: Kinase selectivity profiling; assay type: biochemical
# Description: as §1
# [19] = 5 mg/kg orally three times per week for four weeks
# [20] = 10 mg/kg orally three times per week for four weeks
# [21] = 20 mg/kg orally three times per week for four weeks
# [22] = orally three times per week for four weeks, Example 2 5, 10, 20 mg/kg, Example 3 21.8, 43.6 mg/kg
# [23] = orally three times per week for four weeks, Western blot
# [24] = read-out: % inhibition at 1 μM, 1 μM
# [25] = read-out: % inhibition at 10 μM, 10 μM
smiles,measurement,setting,value
"Cc1cccc(-c2[nH]c(CNc3ccccc3F)nc2-c2ccc3ncnn3c2)n1 [Example 2, N-((4-([1,2,4]triazolo[1,5-a]pyridin-6-yl)-5-(6-methylpyridin-2-yl)-1H-imidazol-2-yl)methyl)-2-fluoroaniline]",IC50,[1],17.3 nM
same,TGF-β1-induced cell invasion,[2],suppressed
same,Body weight,[3]; [19],324 ± 7.3 g
same,Organ weight Liver,[3]; [19],17.5 ± 1.82 g
same,Organ weight Liver/Body,[3]; [19],5.46 ± 0.62%
same,Organ weight Spleen,[3]; [19],2.00 ± 0.28 g
same,Organ weight Spleen/Body,[3]; [19],0.63 ± 0.09 %
same,Body weight,[3]; [20],312 ± 10.4 g
same,Organ weight Liver,[3]; [20],15.8 ± 1.88 g
same,Organ weight Liver/Body,[3]; [20],5.08 ± 0.60%
same,Organ weight Spleen,[3]; [20],1.57 ± 0.12 g
same,Organ weight Spleen/Body,[3]; [20],0.51 ± 0.05 %
same,Body weight,[3]; [21],312 ± 8.4 g
same,Organ weight Liver,[3]; [21],15.2 ± 1.80 g
same,Organ weight Liver/Body,[3]; [21],4.88 ± 0.63%
same,Organ weight Spleen,[3]; [21],1.50 ± 0.16 g
same,Organ weight Spleen/Body,[3]; [21],0.48 ± 0.05 %
same,BDL-induced histological change,"[3]; liver, H&E staining",greatly abolished
same,body weight loss in BDL rats,[3]; [22],recovered
same,organ (liver and spleen) weight in BDL rats,[3]; [22],decreased
same,serum ALT in BDL rats,[3]; [22],improved
same,serum AST in BDL rats,[3]; [22],improved
same,fibronectin in BDL rat liver,[3]; [23],suppressed
same,α-SMA in BDL rat liver,[3]; [23],suppressed
same,inhibition at 1 µM,[4]; [24],14%
same,inhibition at 10 µM,[4]; [25],47%
same,inhibition at 1 µM,[5]; [24],6%
same,inhibition at 10 µM,[5]; [25],14%
same,IC50,[6],257 nM
same,inhibition at 1 µM,[7]; [24],-6%
same,inhibition at 10 µM,[7]; [25],27%
same,inhibition at 1 µM,[8]; [24],-4%
same,inhibition at 10 µM,[8]; [25],-1%
same,inhibition at 1 µM,[9]; [24],0%
same,inhibition at 10 µM,[9]; [25],3%
same,inhibition at 1 µM,[10]; [24],-7%
same,inhibition at 10 µM,[10]; [25],3%
same,inhibition at 1 µM,[11]; [24],-8%
same,inhibition at 10 µM,[11]; [25],43%
same,inhibition at 1 µM,[12]; [24],-2%
same,inhibition at 10 µM,[12]; [25],5%
same,inhibition at 1 µM,[13]; [24],53%
same,inhibition at 10 µM,[13]; [25],91%
same,inhibition at 1 µM,[14]; [24],10%
same,inhibition at 10 µM,[14]; [25],15%
same,inhibition at 1 µM,[15]; [24],20%
same,inhibition at 10 µM,[15]; [25],66%
same,inhibition at 1 µM,[16]; [24],17%
same,inhibition at 10 µM,[16]; [25],71%
same,inhibition at 1 µM,[17]; [24],17%
same,inhibition at 10 µM,[17]; [25],66%
same,inhibition at 1 µM,[18]; [24],47%
same,inhibition at 10 µM,[18]; [25],87%

# Reference: patent USRE47141E1, “Methods of treating fibrosis, cancer and vascular injuries” (EWHA University—Industry Collaboration Foundation, priority 2010, dated 2018)
